{"source": "patent US20250222168A1", "about": "“METHOD OF FORMING AN ALIGNED TISSUE OR TISSUE CONSTRUCT, A TISSUE OR TISSUE CONSTRUCT, AND BIOINK” (PRESIDENT AND FELLOWS OF HARVARD COLLEGE, priority 2022, published 2025)", "key": {"[1]": {"test_system": "aOBBs (anisotropic organ building blocks of hiPSC-CMs and hNDFs)", "assay": "aOBB compaction upon harvest from micropillar array after pre-incubation in ROCK inhibitor", "assay_type": "cell-based, human", "conditions": "FIGS. 8F, 8G; pre-incubation of aOBBs (50 uM, 1 hour)", "experimental": "FIGS. 8A-8G depict scalable generation of cellularly aligned, anisotropic organ building blocks (OBBs). […] Scale bars, top: 200 μm, bottom: 20 μm. (FIG. 8B) Fourier analysis used to quantify the high degree of sarcomere alignment. (FIG. 8C) Without capped ends, aOBBs slide off micro-pillars overtime. (FIG. 8D) aOBB force generation on Day 3. n=5 separate passages. […] Scale bars, 1000 μm. In order to prevent aOBB compaction upon removal from pillars, the aOBBs may be pre-incubated in 50 uM rock inhibitor (Y-27632) for a period of time, such as, e.g., 1 hour. Second, 1 mL of 10% gelbrin (w/v) solution is prepared in DMEM/F12 (Gibco). Third, DMEM High Glucose+10% FBS is supplemented with 50 μM […] (Biogems). Fourth, 100 U/mL thrombin solution is prepared in DMEM High Glucose+10% FBS. All ECM and media solutions were held at 37° C. using a hotplate. […] After 1 h, the aOBBs were harvested manually using a P1000 pipette with wide-bore tips. The wide-bore tips were treated with 3% bovine serum albumin (BSA) to prevent adsorption of the aOBBs. aOBBs were collected three wells at a time and transferred into a single 50 mL tube. Upon collection, the aOBBs were allowed to settle under gravity for 5 min. After the supernatant was aspirated, the volume (x mL) of compacted aOBBs was estimated. We subsequently wash compacted aOBBs in 3× volume of gelbrin bioink. […]"}, "[2]": {"test_system": "aOBBs (anisotropic organ building blocks of hiPSC-CMs and hNDFs)", "assay": "aOBB contraction (force generation on micro-pillars) with ROCK inhibitor and after washing", "assay_type": "cell-based, human", "conditions": "FIG. 8E, n=10 aOBBs from 1 passage", "description": "FIGS. 8A-8G depict scalable generation of cellularly aligned, anisotropic organ building blocks (OBBs). […] Scale bars, top: 200 μm, bottom: 20 μm. (FIG. 8B) Fourier analysis used to quantify the high degree of sarcomere alignment. (FIG. 8C) Without capped ends, aOBBs slide off micro-pillars overtime. (FIG. 8D) aOBB force generation on Day 3. n=5 separate passages. […] Scale bars, 1000 μm. FIGS. 14A-14C depict contractile force measurements for aligned cardiac tissues. Force measurements are quantified using Euler-Bernoulli beam theory. Image and schematic representations of (FIG. 14A) micro- and (FIG. 14B) macro-pillars were quantified using an Instron. Micro- and macro-pillar dimensions were measured from high resolution images recorded across 20 independent samples. (FIG. 14C) The material and geometric information were combined to numerically estimate cantilever spring constants and translate pillar displacement to force generation. Based upon the total concentration of iPSC-CMs, an appropriate volume of 1× rat tail collagen I (Corning) solution was prepared on ice. An appropriate volume of collagen I is calculated based upon a desired final concentration of 1.25 mg/mL. Then y/100 mL of 250 mM CaCl2, ˜x/40 mL of 1 N NaOH, and y mL of collagen I are added, in order, to the basal DMEM high glucose media. […]"}}, "data": [{"smiles": "C[C@@H](N)[C@H]1CC[C@H](C(=O)Nc2ccncc2)CC1", "note": "[Y-27632]", "values": [{"measurement": "effect on aOBB compaction upon harvest", "setting": "[1]", "result": "blunts compaction upon harvest from micropillar array"}, {"measurement": "recovery of aOBB contractile function", "setting": "[2]; after washing out ROCK inhibitor", "result": "Full contractile function is recovered after washing"}, {"measurement": "effect on aOBB contraction", "setting": "[2]; during exposure to ROCK inhibitor", "result": "temporarily blunts aOBB contraction"}]}]}
